The source made the active and inactive calls. The rule behind the calls is not given here.
Key:
Staphylococcus aureus [1] = assay: Antibacterial activity against methicillin-resistant Staphylococcus aureus ATCC 4330 after 16 to 18 hrs by microbroth dilution method; type: functional; settings: time 16-18 hrs
Staphylococcus aureus [2] = assay: Bactericidal activity against methicillin-resistant Staphylococcus aureus ATCC 4330 assessed as reduction in bacterial counts at 1 to 4X MIC within 24 hrs by time-kill kinetic assay; type: functional
Staphylococcus aureus [3] = assay: Bactericidal activity against methicillin-resistant Staphylococcus aureus ATCC 4330 assessed as reduction in bacterial counts at 4X MIC by time-kill kinetic assay; type: functional, organism-based
Staphylococcus aureus [4] = assay: Bactericidal activity against methicillin-resistant Staphylococcus aureus ATCC 4330 assessed as reduction in bacterial counts at 2X MIC within 0.5 hrs by time-kill kinetic assay; type: functional
Staphylococcus aureus [5] = assay: Bactericidal activity against methicillin-resistant Staphylococcus aureus ATCC 4330 assessed as inhibition of bacterial regrowth at 2X MIC after 24 hrs by time-kill kinetic assay; type: functional, organism-based
Staphylococcus aureus [6] = assay: Induction of membrane morphological changes in methicillin-resistant Staphylococcus aureus ATCC 4330 assessed as visible cell membrane disruption at 4X MIC after 2 hrs by transmission electron microscopy; type: functional
Staphylococcus aureus [7] = assay: Induction of membrane morphological changes in methicillin-resistant Staphylococcus aureus ATCC 4330 assessed as ghost cells at 4X MIC after 2 hrs by transmission electron microscopy; type: functional
Staphylococcus aureus [8] = assay: Induction of membrane morphological changes in methicillin-resistant Staphylococcus aureus ATCC 4330 assessed as visible cell wall fragments at 4X MIC after 2 hrs by transmission electron microscopy; type: functional
DNA [9] = assay: Binding affinity to methicillin-resistant Staphylococcus aureus ATCC 4330 DNA assessed as induction of confirmational changes at 50 ug/ml measured by Circular dichroism assay; type: nucleic-acid assay; settings: dose 50.0 µg/ml
Staphylococcus aureus [10] = assay: Induction of membrane morphological changes in methicillin-resistant Staphylococcus aureus ATCC 4330 assessed as visible cell filaments at 4X MIC after 2 hrs by scanning electron microscopy; type: functional
Staphylococcus aureus [11] = assay: Induction of membrane morphological changes in methicillin-resistant Staphylococcus aureus ATCC 4330 assessed as visible cell surface wrinkles at 4X MIC after 2 hrs by scanning electron microscopy; type: functional
Staphylococcus aureus [12] = assay: Induction of membrane morphological changes in methicillin-resistant Staphylococcus aureus ATCC 4330 assessed as permeable cells at 1 to 4X MIC measured after 30 to 120 mins by propidium iodide staining based flow cytometry assay; type: functional; settings: time 30-120 min
DNA [13] = assay: Inhibition of methicillin-resistant Staphylococcus aureus ATCC 4330 genomic DNA migration at 3.125 to 6.25 ug/ml measured by electrophoretic mobility assay; type: nucleic-acid assay; settings: dose 3.125-6.25 µg/ml

Compound	MIC (Staphylococcus aureus [1]) [µg/mL]	Activity (Staphylococcus aureus [2]) [log10CFU/ml]	Activity (Staphylococcus aureus [3])	Activity (Staphylococcus aureus [4]) [log10CFU/ml]	further results
CCCCNC(=O)c1ccc2[nH]c3c(C(=O)c4ccccc4Br)nccc3c2c1	> 200				
CCCCNC(=O)c1ccc2[nH]c3c4[n+](ccc3c2c1)-c1ccccc1C4=O.[Br-]	6.25	2	Active	0.5	Activity (Staphylococcus aureus [5]): Active
Cc1ccc2[nH]c3c4[n+](ccc3c2c1)-c1ccccc1C4=O.[Cl-]	0.78	2		0.1	
O=C(O)c1ccc2[nH]c3c4[n+](ccc3c2c1)-c1ccccc1C4=O.[Br-]	6.25	2	Active	0	
O=C(c1ccccc1Br)c1nccc2c1[nH]c1ccc(Br)cc12	> 200				
Cc1ccc2[nH]c3c4[n+](ccc3c2c1)-c1ccccc1C4=O			Active		Activity (Staphylococcus aureus [6]): Active; Activity (Staphylococcus aureus [7]): Active; Activity (Staphylococcus aureus [8]): Active; Activity (DNA [9]): Active; Activity (Staphylococcus aureus [10]): Active; Activity (Staphylococcus aureus [11]): Active; Activity (Staphylococcus aureus [12]): 1.11%; Activity (Staphylococcus aureus [5]): Active; inhibition of DNA migration (DNA [13]): Active
O=C(c1ccccc1Br)c1nccc2c1[nH]c1ccccc12	> 200				
O=C(c1ccccc1Cl)c1nccc2c1[nH]c1ccccc12	> 200				
Cc1ccc2[nH]c3c(C(=O)c4ccccc4Br)nccc3c2c1	> 200				
NC(=O)c1ccc2[nH]c3c(C(=O)c4ccccc4Br)nccc3c2c1	> 200				
